Assay results taken from patent publication US20220204510A1, “2,3-DIHYDRO-1H-PYRROLIZINE-7-FORMAMIDE DERIVATIVE AND APPLICATION THEREOF” (CHIA TAI TIANQING PHARMACEUTICAL GROUP CO., LTD., priority 2018, published 2022).

Columns and labels:
HBV = test: qPCR test in the HBV in vitro test (HBV DNA in HepG2.2.15 cells); format: cell-based; settings: Hepatitis B virus, 192 h, HBV DNA in HepG2.2.15 culture medium, day 8, read-out: Half maximal inhibitory concentration (EC50) of HBV
Protocol: To evaluate the inhibitory effect of the compound on HBV by detecting content of HBV DNA in HepG2.2.15 cells in a real-time qPCR test, with EC50 of the compound as an indicator.
3.1. HepG2.2.15 cells (4×10^4 cells/well) were inoculated into a 96-well plate and cultured at 37° C. in 5% CO2 overnight. 3.2. On day 2, the compound was 3-fold diluted in gradient for a total of 8 dilution gradients. The compound at different concentrations was added into the culture wells in duplicate. The final concentration of DMSO in the culture medium was 1%. 1 μM GLS4 was used as a 100% inhibition control (the structure of GLS4 disclosed in WO2008154817A1 is as follows:
1% DMSO was used as a 0% inhibition control. 3.3. On day 5, the culture medium was replaced with a fresh culture medium containing the compound. 3.4. On day 8, the culture medium in the culture wells was collected, and the high-throughput DNA purification kit (Qiagen-51162) was used to extract DNA. For specific steps, refer to the product manual.
3.6. Each well of the 96-well PCR plate was added with 15 μL of the reaction mixture, and then with 10 μL of sample DNA or HBV DNA standard. 3.7. The reaction conditions for PCR: heating at 95° C. for 10 min, degeneration at 95° C. for 15 s, and extension at 60° C. for 1 min, with a total of 40 cycles.
3.8.1. Calculation of the inhibition percentage: % Inh.=[1−(DNA copy number in the sample−DNA copy number in 1 μM GLS4)/(DNA copy number in the DMSO control−DNA copy number in 1 μM GLS4)]×100. 3.8.2. Calculation of EC50: half maximal inhibitory concentration (EC50) of the compound for HBV was calculated using GraphPad Prism software. 3.8.3.

CYP1A2 = molecular target: T1, CYP1A2 (Homo sapiens, UniProt P05177); test: Inhibition of human liver microsomal cytochrome P450 isoenzymes; format: in vitro ADME; settings: human liver microsomes
T1 construct: from tissue; host or cells: human liver microsomes
T1 sequence (P05177 1-516): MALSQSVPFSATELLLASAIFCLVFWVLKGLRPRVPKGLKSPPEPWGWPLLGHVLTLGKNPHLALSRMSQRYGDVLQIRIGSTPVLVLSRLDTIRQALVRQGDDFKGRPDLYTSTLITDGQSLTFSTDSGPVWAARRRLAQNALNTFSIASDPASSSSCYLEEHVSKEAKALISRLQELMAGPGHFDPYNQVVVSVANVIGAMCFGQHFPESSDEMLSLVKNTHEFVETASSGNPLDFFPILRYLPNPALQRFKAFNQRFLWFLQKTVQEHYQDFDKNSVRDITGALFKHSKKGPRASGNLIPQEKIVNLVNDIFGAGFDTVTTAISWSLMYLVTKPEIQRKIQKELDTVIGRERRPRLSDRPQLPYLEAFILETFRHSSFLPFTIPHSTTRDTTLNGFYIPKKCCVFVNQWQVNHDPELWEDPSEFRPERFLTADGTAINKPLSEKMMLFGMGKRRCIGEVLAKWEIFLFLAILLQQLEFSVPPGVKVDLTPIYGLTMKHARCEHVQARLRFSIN

CYP3A4 = molecular target: T2, CYP3A4 (Homo sapiens, UniProt P08684); test: as above; format: in vitro ADME; settings: human liver microsomes
T2 construct: from tissue; host or cells: human liver microsomes

[1] = Experiment on cytotoxicity (CellTiter-Glo, 3 days); format: cell-based; settings: 3 days incubation, read-out: 50% cytotoxic concentration (CC50)
Protocol: • 1. The compound was diluted with DMSO (dimethyl sulfoxide) in a 3-fold gradient for 9 concentrations, and added into a 96-well plate in duplicate. The compound concentration was 200-fold of the final test concentration. • 2. The cells were rinsed with PBS (phosphate buffered saline) once, added with 0.25% trypsin and digested for about 2-5 min in a 37° C., 5% CO2 incubator. Then the digestion was terminated with a cell culture medium and the cells were dispersed into single cells by pipetting with a pipettor. • 3. The cell density was counted with a cell counter, and adjusted to the required density with the medium. • 4. The cells were added into a 96-well plate that had been added with the compound. The final concentration of DMSO in each well was 0.5%. Wells containing 0.5% DMSO were used as non-toxic negative controls, and wells containing the cell culture medium were used as 100% cytotoxicity controls. Then the cell plate was incubated in a 37° C., 5% CO2 cell incubator for 3 days. • 5. The chemiluminescence signal (RLU, relative chemiluminescence unit) of each well in the cell plate was detected with the cell viability detection kit CellTiter-Glo using the multi-functional microplate reader Envision, with instructions on the kit followed. • 6. The raw data (RLU) were substituted into the following formula to calculate the cell viability of each well (cell viability %): […]

T2 sequence (P08684 whole entry): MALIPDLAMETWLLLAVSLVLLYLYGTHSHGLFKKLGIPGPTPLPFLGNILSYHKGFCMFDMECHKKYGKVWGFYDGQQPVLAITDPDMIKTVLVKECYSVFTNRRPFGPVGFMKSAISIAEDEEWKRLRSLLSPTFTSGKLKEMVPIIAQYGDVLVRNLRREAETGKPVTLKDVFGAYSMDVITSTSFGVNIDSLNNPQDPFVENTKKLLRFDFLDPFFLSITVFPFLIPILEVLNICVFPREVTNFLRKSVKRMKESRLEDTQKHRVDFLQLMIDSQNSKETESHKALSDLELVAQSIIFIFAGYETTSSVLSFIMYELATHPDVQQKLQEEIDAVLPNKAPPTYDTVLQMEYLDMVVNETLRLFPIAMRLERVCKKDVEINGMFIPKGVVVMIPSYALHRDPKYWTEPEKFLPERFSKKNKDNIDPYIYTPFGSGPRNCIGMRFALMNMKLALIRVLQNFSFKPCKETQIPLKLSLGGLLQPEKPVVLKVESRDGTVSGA

Structure (SMILES)	EC50 (HBV) [µM]	IC50 (CYP1A2) [µM]	IC50 (CYP3A4) [µM]	CC50 at 3 days [1] [µM]
C[C@]1(NC(=O)C(=O)c2c(Cl)c(C(=O)Nc3ccc(F)c(F)c3)c3n2CCC3)CC[C@H](CC(=O)O)CC1 [Compound 18]	0.011	> 50	> 50	> 50
C[C@]1(NC(=O)C(=O)c2c(Cl)c(C(=O)Nc3cc(F)c(F)c(F)c3)c3n2CCC3)CC[C@H](CC(=O)O)CC1 [Compound 25]	0.004	> 50	> 50	> 50
